Reference: US5633276A, “Indoline derivatives, method of preparation and use” (Glaxo Group Limited, priority 1993, dated 1997)
Structures can show the parent of a compound that is named as a salt.

Columns and labels:
[1] = target: melatonin receptors in chicken retinal membranes; assay: Binding to melatonin receptors in chicken retinal membranes; settings: method of Dubocovich and Takahashi, read-out: Chicken retina Ki
Source text: (§1) The results obtained for particular compounds according to the present invention are as follows:

rabbit retina = assay: Melatonin agonist or antagonist activity in rabbit retina; assay type: cell-based; settings: Oryctolagus cuniculus, method of Dubocovich
Source text: as §1

Ki [1] [nM]	IC50 (rabbit retina) [nM]	Compound
4.92	0.95	CC(=O)NCCN1CCc2ccc3c(c21)CCCO3 [Example 2, N-[2-(2,3,8,9-Tetrahydro-7H-pyrano[2,3-g]indol-1-yl)-ethyl]-acetamide hydrochloride]
0.42	0.04	CC(=O)NCCN1CCc2ccc3c(c21)CCO3 [Example 3, N-[2-(2,3,7,8-Tetrahydro-1H-furo[2,3-g]indol-1-yl)ethyl]-acetamide]
3.21	–	CC(=O)NCCN1CCc2cc(Cl)c3c(c21)CCO3 [Example 5, N-[2-(5-Chloro-2,3,7,8-tetrahydro-1H-furo[2,3-g]indol-1-yl)-ethyl]-acetamide]
1.68	0.2	O=C(NCCN1CCc2ccc3c(c21)CCO3)C1CC1 [Example 6, Cyclopropanecarboxylic acid [2-(2,3,7,8-tetrahydro-1H-furo[2,3-g]indol-1-yl)-ethyl]-amide]
